The values below come from patent US20250114361A1, “PYRAZOLOPYRIMIDINE COMPOUND AND PHARMACEUTICAL USE THEREOF” (Japan Tobacco Inc., priority 2022, published 2025).

In the first assay the target is NLRP3 inflammasome (Homo sapiens (Human), UniProt Q96P20). Nature of the assay: NLRP3 inflammasome inhibitory activity: inhibition of IL-1β production in THP1-Null cells (PMA, LPS, Nigericin). As to conditions: Nigericin 7.5 μmol/L. Type of assay: cell-based. The procedure: The NLRP3 inflammasome inhibitory activity of test compounds were evaluated on the basis of the inhibitory activity of the IL-1β production in THP1-Null cells (Product Number: thp-null, InvivoGen). Cells were maintained for culture in RPMI-1640 media containing 10% (v/v) fetal bovine serum, 25 mmol/L HEPES, 100 U/mL penicillin, 100 μg/mL streptomycin, 100 μg/mL normocin, and 200 μg/mL hygromycin B (set at 37° C., 5% CO2/95% air).
NLRP3 inflammasome, sequence (Q96P20 whole entry): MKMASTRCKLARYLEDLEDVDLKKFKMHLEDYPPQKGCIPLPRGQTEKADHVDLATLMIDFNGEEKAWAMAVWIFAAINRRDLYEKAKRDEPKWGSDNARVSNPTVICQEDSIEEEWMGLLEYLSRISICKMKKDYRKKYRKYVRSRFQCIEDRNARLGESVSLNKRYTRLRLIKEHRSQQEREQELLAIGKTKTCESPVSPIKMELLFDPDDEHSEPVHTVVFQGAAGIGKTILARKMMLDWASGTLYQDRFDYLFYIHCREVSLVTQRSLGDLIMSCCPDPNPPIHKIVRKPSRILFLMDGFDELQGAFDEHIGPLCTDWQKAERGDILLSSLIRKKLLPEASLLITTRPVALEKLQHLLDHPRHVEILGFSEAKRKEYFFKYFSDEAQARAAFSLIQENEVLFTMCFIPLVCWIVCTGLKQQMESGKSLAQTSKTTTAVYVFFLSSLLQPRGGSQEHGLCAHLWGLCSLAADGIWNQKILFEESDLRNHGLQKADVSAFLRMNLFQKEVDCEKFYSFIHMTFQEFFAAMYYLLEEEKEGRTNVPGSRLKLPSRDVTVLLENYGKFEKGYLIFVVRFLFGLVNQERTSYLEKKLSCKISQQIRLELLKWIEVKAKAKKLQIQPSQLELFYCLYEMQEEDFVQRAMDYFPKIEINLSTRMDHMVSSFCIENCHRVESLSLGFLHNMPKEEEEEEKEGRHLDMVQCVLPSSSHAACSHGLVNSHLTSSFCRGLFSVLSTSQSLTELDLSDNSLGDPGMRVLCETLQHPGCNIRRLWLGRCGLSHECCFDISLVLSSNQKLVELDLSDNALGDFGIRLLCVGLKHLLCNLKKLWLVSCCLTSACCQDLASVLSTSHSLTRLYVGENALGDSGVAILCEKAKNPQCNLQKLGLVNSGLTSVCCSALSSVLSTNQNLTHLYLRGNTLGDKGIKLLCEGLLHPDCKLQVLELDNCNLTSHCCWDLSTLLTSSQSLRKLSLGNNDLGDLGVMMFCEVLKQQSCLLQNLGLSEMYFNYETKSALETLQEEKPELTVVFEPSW
Cells were suspended with media for assay containing 0.5 μmol/L PMA (RPMI-1640 media containing 10% (v/v) fetal bovine serum, 100 U/mL penicillin, and 100 μg/mL streptomycin), and the suspended cells were seeded on Corning (registered trademark) 384-well Flat Clear Bottom Black Polystyrene TC-treated Microplates (25,000 cells/25 μL/well), followed by incubation (set at 37° C., 5% CO2/95% air) overnight. The supernatant of the culture was removed, and thereto was added media for assay (25 μL/well) containing 1 μg/mL Lipopolysaccharides (Product Number: L2654, Sigma-Aldrich (registered trademark)). Then, the culture was further incubated for 3 hours (set at 37° C., 5% CO2/95% air). The supernatant of the culture was removed. Then, a vehicle solution prepared from Opti-MEM (trademark) medium (Product Number: 31985-070, Invitrogen) was added to blank-setting wells and control-setting wells (20 μL/well), followed by incubation for 15 minutes (set at 37° C., 5% CO2/95% air). A solution containing a test compound (20 μL/well) was added to test compound-setting wells. Further, Opti-MEM (trademark) medium containing Nigericin (Product Number: N7143, Sigma-Aldrich (registered trademark)) was added to the control-setting wells and test compound-setting wells (5 μL/well), followed by incubation for 1.5 hours (set at 37° C., 5% CO2/95% air). The final concentration of Nigericin was adjusted to be 7.5 μmol/L. 5 μL/well of Opti-MEM (trademark) medium was added to the blank-setting wells. The supernatant of the culture was cryonically stored (set at −20° C.) until measurement of IL-1β.
The amount of IL-1β in the culture supernatant was quantitated with AlphaLISA (registered trademark) Human IL-1β Detection Kit (Product Number: AL220C, Perkin Elmer). Fluorescence intensity was measured with a microplate reader EnSpier (Model number: 2300-00J, Perkin Elmer) or EnSight (Model number: HH34000000, Perkin Elmer) according to procedure manuals attached thereto. Inhibition rates of the test compound-setting wells were calculated on the basis of 100% for the blank-setting wells and 0% for the control-setting wells. IC50 values (i.e., 50% inhibitory concentrations) of the test compounds were calculated by logistic regression analysis.
`Cc1ccccc1-n1cc2c(=O)[nH]c(-c3ccn(C)n3)nc2n1` [Example 1] displayed an IC50 of 3.8 µM.
On the same count and under the same terms, the figure for `COc1cc(C)c(-n2cc3c(=O)[nH]c(-c4ccn(C)n4)nc3n2)c(C)c1` [Example 2] is 0.064 µM.
On the same count and under the same terms, the figure for `COc1cc(C)c(-n2cc3c(=O)[nH]c(-c4cnn(C)c4)nc3n2)c(C)c1` [Example 3] is 0.11 µM; for `Cc1cc(C2CC2)cc(C)c1-n1cc2c(=O)[nH]c(-c3ccn(C)n3)nc2n1` [Example 4, 2-(4-cyclopropyl-2,6-dimethylphenyl)-6-(1-methyl-1H-pyrazol-3-yl)-2,5-dihydro-4H-pyrazolo[3,4-d]pyrimidin-4-one] it is 0.015 µM; for `Cc1cc(C2CC2)cc(C)c1-n1cc2c(=O)[nH]c(-c3ccnn3C)nc2n1` [Example 5] it is 0.023 µM.
Still for that read-out and setting: the figure for `Cc1cn(C)nc1-c1nc2nn(-c3c(C)cc(C4CC4)cc3C)cc2c(=O)[nH]1` [Example 6] is 0.05 µM; for `Cc1cc(C(C)(F)F)cc(C)c1-n1cc2c(=O)[nH]c(-c3ccn(C)n3)nc2n1` [Example 8, 2-{4-(1,1-difluoroethyl)-2,6-dimethylphenyl}-6-(1-methyl-1H-pyrazol-3-yl)-2,5-dihydro-4H-pyrazolo[3,4-d]pyrimidin-4-one] it is 0.033 µM.
`Cc1cc(OC(F)F)cc(C)c1-n1cc2c(=O)[nH]c(-c3ccn(C)n3)nc2n1` [Example 9] displayed an IC50 of 0.049 µM. This IC50 and that of the compound before are within 1.5-fold of each other.
Take `Cc1cc(Br)cc(C)c1-n1cc2c(=O)[nH]c(-c3ccn(C)n3)nc2n1` [Example 10]: inhibition was half-maximal at 0.02 µM (IC50).
With `Cc1cc(Br)cc(C)c1-n1cc2c(=O)[nH]c(-c3cnn(C)c3)nc2n1` [Example 11], the IC50 was determined as 0.018 µM.
Consider `Cc1cc(Br)cc(C)c1-n1cc2c(=O)[nH]c(-c3ccncn3)nc2n1` [Example 12, 2-(4-bromo-2,6-dimethylphenyl)-6-(pyrimidine-4-yl)-2,5-dihydro-4H-pyrazolo[3,4-d]pyrimidin-4-one], for which the IC50 was 0.0078 µM. Compared with the last compound, the IC50 is about 2.3-fold lower.
The same measure, in the same setting: the figure for `Cc1cc(C2CC2)cc(C)c1-n1cc2c(=O)[nH]c(-c3cc[nH]n3)nc2n1` [Example 13] is 0.029 µM.
For the compound `Cc1nnc(-c2nc3nn(-c4c(C)cc(Br)cc4C)cc3c(=O)[nH]2)o1` [Example 14], the IC50 stood at 0.39 µM.
Same read-out and setting: the figure for `Cc1cc(Br)cc(C)c1-n1cc2c(=O)[nH]c(-c3ccnnc3)nc2n1` [Example 15] is 0.015 µM; for `COCCn1ccc(-c2nc3nn(-c4c(C)cc(Br)cc4C)cc3c(=O)[nH]2)n1` [Example 16] it is 0.047 µM.
In turn, `COCCn1nccc1-c1nc2nn(-c3c(C)cc(Br)cc3C)cc2c(=O)[nH]1` [Example 17] returned an IC50 of 0.22 µM.
Compound `Cc1cc(C2CC2)cc(C)c1-n1cc2c(=O)[nH]c(-c3ccn(C(F)F)n3)nc2n1` [Example 18] registered an IC50 of 0.055 µM.
The same measure, in the same setting: the figure for `Cc1cc(C2CC2)cc(C)c1-n1cc2c(=O)[nH]c(-c3ccn(C4COC4)n3)nc2n1` [Example 19] is 0.062 µM; for `COCCn1ccc(-c2nc3nn(-c4c(C)cc(C5CC5)cc4C)cc3c(=O)[nH]2)n1` [Example 20] it is 0.023 µM; for `Cc1cc(Br)cc(C)c1-n1cc2c(=O)[nH]c(-c3cn(C)nn3)nc2n1` [Example 21] it is 0.013 µM.
In turn, `Cc1cc(Br)cc(C)c1-n1cc2c(=O)[nH]c(-c3cnccn3)nc2n1` [Example 22] registered an IC50 of 0.068 µM.
`Cc1cc(Br)cc(C)c1-n1cc2c(=O)[nH]c(-c3cccnn3)nc2n1` [Example 23] gave a 50% inhibitory concentration (IC50) of 0.022 µM. This IC50 lies about 3.1-fold lower than the previous one.
Still for that read-out and setting: the figure for `Cc1ncc(-c2nc3nn(-c4c(C)cc(Br)cc4C)cc3c(=O)[nH]2)o1` [Example 24] is 0.053 µM; for `Cc1cc(-c2nc3nn(-c4c(C)cc(Br)cc4C)cc3c(=O)[nH]2)no1` [Example 25] it is 0.015 µM; for `Cc1cc(C2CC2)cc(C)c1-n1cc2c(=O)[nH]c(-c3cn(C)nn3)nc2n1` [Example 26] it is 0.012 µM.
Same read-out and setting: then `Cc1cc(OC(F)F)cc(C)c1-n1cc2c(=O)[nH]c(-c3cccnn3)nc2n1` [Example 27], with 0.062 µM; and `Cc1cc(C2CC2)cc(C)c1-n1cc2c(=O)[nH]c(-c3ccnnc3)nc2n1` [Example 28], with 0.011 µM.
Same read-out and setting: then `Cc1cc(C(F)(F)F)cc(C)c1-n1cc2c(=O)[nH]c(-c3ccn(C)n3)nc2n1` [Example 29], with 0.069 µM; and `CCn1ccc(-c2nc3nn(-c4c(C)cc(Br)cc4C)cc3c(=O)[nH]2)n1` [Example 30], with 0.04 µM.
In turn, `Cc1cc(Br)cc(C)c1-n1cc2c(=O)[nH]c(-c3cc(C(F)(F)F)ncn3)nc2n1` [Example 31] returned an IC50 of 0.94 µM.
Consider `Cc1cc(Br)cc(C)c1-n1cc2c(=O)[nH]c(-c3ccnc(C(F)(F)F)n3)nc2n1` [Example 32], for which the IC50 was determined as 0.077 µM.
Still for that read-out and setting: the figure for `Cc1cc(C(F)(F)F)cc(C)c1-n1cc2c(=O)[nH]c(-c3ccncc3F)nc2n1` [Example 33] is 0.022 µM; for `COc1nccc(-c2nc3nn(-c4c(C)cc(Br)cc4C)cc3c(=O)[nH]2)n1` [Example 34] it is 0.027 µM; for `Cc1cc(Br)cc(C)c1-n1cc2c(=O)[nH]c(-c3ccncc3F)nc2n1` [Example 35] it is 0.024 µM.
The same measure, in the same setting: then `Cc1cc(C2CC2)cc(C)c1-n1cc2c(=O)[nH]c(-c3ccncc3F)nc2n1` [Example 36], with 0.016 µM; and `Cc1cc(Br)cc(C)c1-n1cc2c(=O)[nH]c(-c3nn(C)cc3F)nc2n1` [Example 37], with 0.036 µM; and `Cc1cc(C2CC2)cc(C)c1-n1cc2c(=O)[nH]c(-c3nn(C)cc3F)nc2n1` [Example 38], with 0.015 µM.
For the compound `Cc1cc(C2CC2)cc(C)c1-n1cc2c(=O)[nH]c(-c3cn(C)cn3)nc2n1` [Example 39, 2-(4-cyclopropyl-2,6-dimethylphenyl)-6-(1-methyl-1H-imidazol-4-yl)-2,5-dihydro-4H-pyrazolo[3,4-d]pyrimidin-4-one], the IC50 turned out to be 0.023 µM. Against the preceding compound, the IC50 is about 1.5-fold higher.
`COCc1cc(C2CC2)cc(C)c1-n1cc2c(=O)[nH]c(-c3ccn(C)n3)nc2n1` [Example 40] registered an IC50 of 0.0063 µM.
On the same count and under the same terms, the figure for `Cc1cc(C(C)(F)F)cc(C)c1-n1cc2c(=O)[nH]c(-c3cn(C)cn3)nc2n1` [Example 41, 2-{4-(1,1-difluoroethyl)-2,6-dimethylphenyl}-6-(1-methyl-1H-imidazol-4-yl)-2,5-dihydro-4H-pyrazolo[3,4-d]pyrimidin-4-one] is 0.04 µM; for `Cc1cc(C(C)(F)F)cc(C)c1-n1cc2c(=O)[nH]c(-c3ccncn3)nc2n1` [Example 42] it is 0.014 µM; for `Cc1cc(C2CC2)cc(C)c1-n1cc2c(=O)[nH]c(-c3ccncn3)nc2n1` [Example 43] it is 0.0043 µM.
The same measure, in the same setting: then `Cc1cccc(C)c1-n1cc2c(=O)[nH]c(-c3ccn(C)n3)nc2n1` [Example 44], with 0.88 µM.
Same read-out and setting: then `Cc1cc(C2(F)CC2)cc(C)c1-n1cc2c(=O)[nH]c(-c3ccn(C)n3)nc2n1` [Example 46], with 0.0031 µM; and `Cc1cc(C2CC2)cc(C)c1-n1cc2c(=O)[nH]c(-c3cnn(C)c3)nc2n1` [Example 47], with 0.0067 µM; and `Cc1cc(I)cc(C)c1-n1cc2c(=O)[nH]c(-c3ccn(C)n3)nc2n1` [Example 48], with 0.0025 µM.
For the compound `Cc1cc(C2CC2)cc(CO)c1-n1cc2c(=O)[nH]c(-c3ccn(C)n3)nc2n1` [Example 49], inhibition was half-maximal at 0.037 µM (IC50).
On the same count and under the same terms, the figure for `Cc1csc(-c2nc3nn(-c4c(C)cc(C5CC5)cc4C)cc3c(=O)[nH]2)n1` [Example 50] is 0.006 µM; for `Cc1cc(C2CC2)cc(C)c1-n1cc2c(=O)[nH]c(-c3cscn3)nc2n1` [Example 52] it is 0.002 µM; for `Cc1cc(C2CC2)cc(C)c1-n1cc2c(=O)[nH]c(-c3cnn4c3OCCC4)nc2n1` [Example 53] it is 0.24 µM.
Consider `Cc1cc(C2CC2)cc(C)c1-n1cc2c(=O)[nH]c(-c3cc4n(n3)CCOC4)nc2n1` [Example 54], for which the IC50 is 0.009 µM.
As to `Cc1cc(C2CC2)cc(C)c1-n1cc2c(=O)[nH]c(-c3cc4n(n3)CCCO4)nc2n1` [Example 55], the IC50 stood at 0.024 µM.
Same read-out and setting: then `Cn1ccc(-c2nc3nn(-c4cc5c(cc4Cl)OCCC5)cc3c(=O)[nH]2)n1` [Example 56], with 0.084 µM.

The same assay, now with this note: at 0.3 μM.
Compound `Cc1cc(C2(O)CC2)cc(C)c1-n1cc2c(=O)[nH]c(-c3ccn(C)n3)nc2n1` [Example 51] came in with an inhibition at 0.3 µM of 35%.

The same assay, now with this note: at 2.4 μM.
`Cc1cc(C2(F)CC2(Cl)Cl)cc(C)c1-n1cc2c(=O)[nH]c(-c3ccn(C)n3)nc2n1` (racemic) [Example 45] yielded an inhibition at 2.4 µM of 34%.

For orientation: IC50 means the concentration at which inhibition is half-maximal. The term inhibition denotes the change of the read-out against control, counted positive when it falls. Read a high inhibition as strong suppression.
